# Key:
# Type in all cases: cell-based, human
# ARPE-19 cells [1] = experiment: GSH assay (Promega GSH/GSSG-Glo); conditions: 1 mM for 24 hours
# Experimental: The production of cellular GSH levels upon exposure to drugs were measured using the GSH assay kit. NACA and GSH-EE were used as controls in this assay. ARPE-19 cells were grown in white 96 well plates. The cells were exposed to 1 mM solutions of NAC, NACME, NACEE, NACPE, NACBE, NACA and glutathione ethyl ester (GSH-EE) for 24 hours. The solutions were removed and washed with PBS once. Afterwards, GSH assay was carried out according to manufacturer recommended protocol (Promega GSH/GSSG-Glo™) and luminescence readings were obtained with a luminometer, which a higher luminescence intensity indicates a higher GSH concentration.
# ARPE-19 cells [2] = experiment: ZO-1 staining of cellular junctions
# Experimental: ARPE-19 cells were grown on an 8-well slide until confluent. The cells were exposed to 1 mM NAC and NACBE for 24 hours, followed by treatment with 500 μM of HQ for 2 hours. The cells were washed with 3 cycles of PBS, and then fixed with 4% Paraformaldehyde at 4° C. for 30 mins. After fixation the cells were blocked in PBST (0.2% Triton X-100)+1% BSA for 60 mins. Primary antibody (rabbit anti-Zo-1, Invitrogen) was diluted 1/100 in PBST+1% BSA and added overnight at […]. Cells were washed ×3 with PBS and secondary antibody (Donkey anti-Rabbit AF-555, Abcam) was added for 4 hours at RT. Cells were washed ×3 with PBS and mounted with Prolong Diamond Mountant with DAPI (Invitrogen).
# ARPE-19 cells [3] = experiment: in vitro; conditions: then 500 μM HQ for 16 hours
# Experimental: ARPE-19 cells were grown in DMEM:F-12 supplemented with 10% fetal bovine serum (FBS). For all experiments these cells were split and grown in 6-well plates using MEM-Nic supplemented with 1% FBS according to a previously published procedure.^33 Cells used for all the experiments were between passages 25-30. For all experiments, the 96 well plates and 8-well slides were coated with 0.039 mg/mL collagen I at 6 μg/cm^2. The cells were seeded at a cell density of 70,000 cells/well and 150,000 cells/well using MEM-Nic media for 96 well plates and 8 well slides, respectively. Once the cells are confluent, media was replaced with MEM a, GlutaMAX™, supplemented with 1% FBS for 24 hours before carrying out assay protocols. Exposure to NAC alkyl-ester prodrugs were carried out in MEM a, GlutaMAX™, supplemented with 1% FBS and treatment with HQ was carried out in serum free DMEM:F-12.
# ARPE-19 Cell viability assays were carried out using XTT/PMS reagent mixtures according to standard procedures known in the art (see Celis, J. E.; Carter, N., Cell Biology: A Laboratory Handbook. Elsevier Science: 2005). Corresponding absorbance readings were obtained using a plate reader at 450 and 660 nm.
# A dose dependent study was first carried out for ARPE-19 cells using HQ concentrations varying from 100-1000 μM. Cells were then incubated at 37° C., 5% CO2 for 16 hours. HQ doses of less than 400 μM were non-lethal. Using 500 μM HQ for 16 hours gave a cell viability of ˜60%.
# To evaluate the ability of the NAC alkyl-ester analogues to provide cellular protection against oxidative stress, cells were treated with 0.05 mM of NAC, NACME, NACEE, NACPE and NACBE for 2, 24 and 48 hours. Treated cells were then exposed to 500 μM HQ for 16 hours. HQ solutions were removed and replaced with DMEM:F-12 supplemented with 1% FBS, and followed by the addition of XTT (2,3-bis-(2-methoxy-4-nitro-5-sulfophenyl)-2H-tetrazolium-5-carboxanilide) and PMS (phenazine methyl sulfate).
# To compare the effectiveness of NACBE and NAC in protecting against oxidative damage, another dose dependent study was carried out by varying the pretreatment concentration from 0.001 mM to 1.0 mM. […] Whereas for NAC, to reach the same cell viability, 0.5 mM concentration was needed (10× times that of NACBE).
# ARPE-19 cells [4] = experiment: CellTiter-Glo assay (ATP); conditions: 1 mM pretreatment, then 500 μM HQ for 3, 6 and 8 hours
# Experimental: ARPE-19 cells were grown in white 96 well plates. The cells were first exposed to 500 μM of HQ for 3, 6 and 8 hours and the amount of ATP produced was measured using the CellTiter-Glo assay kit to obtain a time dependent response (FIG. 15). […] Due to the mitochondrial damage caused by HQ, the production of ATP was decreased.
smiles,measurement,setting,value
"CCCCOC(=O)[C@H](CS)NC(C)=O [NACBE, N-acetylcysteine butyl ester]",cellular GSH level (luminescence) compared to untreated cells,ARPE-19 cells [1],produced the highest amounts of GSH
same,ZO-1 staining of cell-cell junctions,"ARPE-19 cells [2]; 1 mM for 24 hours, without HQ",proper cell-cell junctions
same,ZO-1 staining of cellular junctions after exposure to HQ,"ARPE-19 cells [2]; 1 mM pretreatment for 24 hours, then 500 μM HQ for 2 hours",intact
same,change in cell viability upon exposure to HQ,"ARPE-19 cells [3]; 0.05 mM pretreatment for 24 and 48 hours, compared to NAC and the control",comparatively a higher cell viability
same,change in cell viability upon exposure to HQ,ARPE-19 cells [3]; 0.05 mM pretreatment for 2 hours,marginal effect
same,pretreatment concentration at which 100% cell viability was obtained,ARPE-19 cells [3]; pretreatment 0.001-1.0 mM for 24 hours,0.05 mM
same,ATP production after HQ insult,ARPE-19 cells [4],ATP production remained unaltered
